In general, AC50 refers to the concentration at which the activity in the assay is half-maximal.

Structures are written as SMILES. The source made the active and inactive calls. Rule as the data show it: active = AC50 below about 11 µM.

Drawing on PubChem BioAssay AID1259334 (Broad Institute, 2017), this text covers AC50 for 56 compounds.

In this test the test system is B cell line, TNFa signaling counterscreen reporter. The test can be described thus: TNFa pathway inhibition counter-screen, B-lineage cells – dose response (AID 1259334).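 Also: cells stimulated with TNFa after compound preincubation.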
Regarding `COc1ccc(CC2C(=O)NC(C)C(=O)N(C)C3C(=O)N(C)C(Cc4ccc(O)c(c4)Oc4ccc(cc4)C3O)C(=O)NC(C)C(=O)NC(C)C(=O)N2C)cc1` (stereo unspecified), the AC50 was 0.0133 µM.
The same measure for `CCCCn1c(NC(=O)c2ccc(Br)o2)c(S(=O)(=O)c2ccccc2)c2nc3ccccc3nc21`: 9.82 µM; for `CC(C)(C)c1cc(C=C(C#N)C#N)cc(C(C)(C)C)c1O`: 1.22 µM.
With `C[C@@H]1CN([C@H](C)CO)C(=O)c2c(c3ccccc3n2C)-c2ccccc2CO[C@H]1CN(C)C(=O)c1cc(Cl)cc(Cl)c1` the figure was > 20 µM (inactive); with `CNC(=S)NN=C(C)CCCC(C)=NNC(=S)NC`, 2.47 µM.
Take `N#C[C@@H]1[C@H](c2ccc(C#Cc3ccccc3F)cc2)[C@@H](CO)N1C(=O)c1cccnc1`: the AC50 was 6.76 µM.
With `COc1ccc(C#Cc2ccc([C@H]3[C@@H](CO)N4CCCCN(S(=O)(=O)c5cn(C)cn5)C[C@H]34)cc2)cc1` the figure was 8.82 µM; with `Cc1cc(C)cc(N2C(=O)CC(Sc3nnnn3-c3ccccc3)C2=O)c1` (stereo unspecified), 0.728 µM; with `O=C(Nc1ccccc1)N1CC(=O)N2[C@H](CO)[C@@H](c3ccc(C#CC4CCCCC4)cc3)[C@H]2C1`, 11.5 µM.
The same measure for `CCCC(=O)NC1=C(Cl)C(=O)c2ccccc2C1=O`: 0.712 µM; for `Cc1cc(C(=O)COC(=O)CNC(=O)c2ccccc2)c(C)n1CC1CCCO1` (stereo unspecified): 5.61 µM; for `COc1c(-c2coc3cc4c(cc3c2=O)CC(O)C(C)(C)O4)ccc2c1C=CC(C)(C)O2` (stereo unspecified): 11 µM.
With `COc1ccc(C#Cc2ccc([C@H]3[C@H]4CN(C(=O)c5ccncc5)CCCCN4[C@H]3CO)cc2)cc1` the figure was 8.29 µM.
With `CC1=C(C#N)c2nc(N)c(C#N)c(C)c2/C1=C\c1ccccc1`, the AC50 is 3.57 µM.
In the case of `C[C@H]1CN([C@@H](C)CO)C(=O)Cc2cc(NS(=O)(=O)c3cccs3)ccc2O[C@@H]1CN(C)Cc1ccc(Cl)c(Cl)c1`, the AC50 is 7.19 µM.
Regarding `COc1cccc(-c2cc(=O)c3cc(OC)ccc3o2)c1`, the AC50 is 3.07 µM.
As for `OC1CC2CCC(C1)N2CCCN1c2ccccc2Sc2ccc(Cl)cc21` (stereo unspecified), the AC50 is 9.1 µM.
Take `C[n+]1c(-c2ccccc2)cc2c(=Cc3ccc([N+](=O)[O-])cc3)c3ccccc3n21`: the AC50 was 2.96 µM.
With `N#Cc1c(Br)n(C2OC(CO)C(O)C2O)c2ncnc(N)c12` (stereo unspecified) the figure was 1.16 µM; with `COc1c(O)cc2oc3cc(O)c(CC=C(C)C)c(O)c3c(=O)c2c1CC=C(C)C`, 3.15 µM; with `COc1ccc(C(=O)CCN2CCc3cc(OC)c(OC)cc3C2)cc1`, 5.97 µM.
As to `COc1ccc(S(=O)(=O)Nc2ccc3c(c2)C(=O)N([C@H](C)CO)C[C@H](C)[C@@H](CN(C)Cc2ccc(C(F)(F)F)cc2)OCCCC[C@@H](C)O3)cc1`, the AC50 was 8.37 µM.
With `Cc1ccc(N2CC(C(=O)Nc3nccs3)CC2=O)cc1Cl` (stereo unspecified) the figure was 8.13 µM; with `COC(=O)c1ccc2nc(NC(=O)C(C)(C)C)sc2c1`, 2.32 µM; with `C[C@H]1O[C@@H](O[C@H]2[C@@H](O)C[C@H](O[C@H]3[C@@H](O)C[C@H](O[C@H]4CC[C@]5(C)C6CC[C@]7(C)[C@@H](C8=CC(=O)OC8)CC[C@]7(O)C6CC[C@@H]5C4)O[C@@H]3C)O[C@@H]2C)C[C@H](O)[C@@H]1O` (stereo partly specified), 0.444 µM.
The same measure for `N#C[C@H]1N[C@H](CO)[C@H]1c1ccc(C#CC2CCCC2)cc1`: 8.01 µM; for `CC(C)OC(=O)c1cn(Cc2c(F)cccc2F)c2sc(-c3ccc(NC(=O)C(C)C)cc3)c(CN(C)Cc3ccccc3)c2c1=O`: 8.24 µM.
With `Cc1ccc(S(=O)(=O)NC(C(=O)Oc2cc3oc(=O)cc(C)c3cc2Cl)C(C)C)cc1` (stereo unspecified) the figure was 9.41 µM.
With `N#C[C@H]1[C@H](c2ccc(C#Cc3ccccc3F)cc2)[C@@H](CO)N1C(=O)C1CCC1`, the AC50 was > 20 µM (inactive).
Take `COCC(=O)N1[C@H](C#N)[C@H](c2ccc(C#Cc3ccccc3F)cc2)[C@H]1CO`: the AC50 is 2.23 µM.
With `O=C(Nc1ccccc1F)N1C[C@@H]2N[C@H](C1)C2c1ccc(/C=C/c2ccccc2)cc1` (stereo partly specified) the figure was 1.39 µM; with `COc1ccc2c3c(n(C)c2c1)[C@H](CO)N(C(=O)Nc1ccc(F)cc1)CC31CCN(C(=O)c2ccc3c(c2)OCO3)CC1`, > 20 µM (inactive).
Take `O=C(C1CCOCC1)N1CC(=O)N2[C@H](C1)[C@H](c1ccc(C#CCc3ccccc3)cc1)[C@@H]2CO`: the AC50 was 1.6 µM.
With `CC1CC(C)(C)Nc2ccc(OC(=O)c3ccco3)cc21` (stereo unspecified) the figure was 2.42 µM.
`COc1cc2cc(C(=O)N3CC(COS(C)(=O)=O)c4ccc(O)cc43)[nH]c2c(OC)c1OC` (stereo unspecified): the AC50 is 0.00612 µM.
`c1cc(-c2cnn3cc(-c4ccc(OCCN5CCCCC5)cc4)cnc23)ccn1`: the AC50 is 1.13 µM.
For the compound `C=C1C(=O)OC2CC1C(O)CC(C)=CCCC(C)=CC(O)CC2C` (stereo unspecified), the AC50 was 2.27 µM.
The same measure for `CN(C)c1ccc(C(=C2C=CC(=[N+](C)C)C=C2)c2ccc(N(C)C)cc2)cc1`: 0.099 µM; for `O=C(/C=C/c1ccccc1)CC(O)(c1ccccc1)C(F)(F)C(F)F` (stereo unspecified): 5.06 µM; for `COc1ccc(C(=O)/C=C/C(=O)N(CC(=O)NC2CCCCC2)Cc2ccc(F)cc2)c(O)c1`: 5.1 µM.
With `C[C@@H]1CN([C@@H](C)CO)C(=O)c2ccccc2-c2ccccc2CO[C@@H]1CN(C)C(=O)c1cc(Cl)cc(Cl)c1`, the AC50 was > 20 µM (inactive).
With `CCS(=O)(=O)N1Cc2ccccc2CC1C(=O)Nc1nc2ccccc2s1` (stereo unspecified) the figure was 6.66 µM; with `O=C(C[C@@H]1CC[C@@H]2[C@H](COC[C@H](O)CN2Cc2cc(F)ccc2F)O1)NCc1ccc(Oc2ccccc2)cc1`, 5.02 µM.
With `Cc1ccc2c(=O)c3ccccc3n(CCCN)c2c1C` the figure was 3.28 µM.
Consider `C[C@@H]1CC=CC[C@H](c2ccc(F)cc2)NC(=O)[C@@H](Cc2ccccc2)N(C)C(=O)c2ccccc2O1` (mixture of isomers), for which the AC50 was > 20 µM (inactive).
The same measure for `O=C(C1CC1)N1C[C@@H]2N[C@H](C1)[C@@H]2c1ccc(-c2ccncc2)cc1`: 5 µM.
The same measure for `C[C@H]1CN([C@@H](C)CO)C(=O)Cc2cc(NC(=O)Cc3cn(C)c4ccccc34)ccc2O[C@H]1CN(C)Cc1ccc(C(F)(F)F)cc1`: > 20 µM (inactive).
The same measure for `CS(=O)(=O)c1ccc(C(=O)OCC(=O)NC(=O)C2COc3ccccc3O2)cc1[N+](=O)[O-]` (stereo unspecified): 5.1 µM.
Turning to `Nc1ccc(-c2cccc3c(=O)cc(N4CCOCC4)oc23)cc1`, the AC50 was 8.56 µM.
The same measure for `Oc1c(Cl)cc(Cl)c(Cl)c1Cc1c(O)c(Cl)cc(Cl)c1Cl`: 2.69 µM; for `COC(=O)C[C@](O)(CCCC(C)(C)O)C(=O)O[C@@H]1C(OC)=C[C@]23CCCN2CCc2cc4c(cc2[C@H]13)OCO4`: less than 0.0046 µM; for `C[C@H](CO)N1C[C@H](C)[C@@H](CN(C)Cc2ccc(Cl)c(Cl)c2)OCCCC[C@H](C)Oc2ccc(NS(=O)(=O)c3cccs3)cc2C1=O`: 8.48 µM.
With `O=C(Cc1ccccc1)N1CC[C@@H]2[C@H]1c1cc(-c3cccc(F)c3)ccc1N[C@@H]2CO` the figure was 10.7 µM.
The same measure for `O=C(Nc1ccccn1)c1ccc(-c2ccccc2)cc1`: 2.91 µM; for `CC1=CC2OC3CC4OC(=O)C=CC=CC(=O)OCCC(C)C(O)C(=O)OCC2(CC1O)C4(C)C31CO1` (stereo unspecified): 0.00511 µM; for `Cc1ccc2c(c1)C(O)(CC(=O)/C=C/C=C/c1ccccc1)C(=O)N2` (stereo unspecified): > 20 µM (inactive).
